From patent publication US10039770B2, “Prostaglandin F2Alpha and analogues thereof for treating atrophic cutaneous scarring” (Galderma S.A., priority 2013, dated 2018)

Legend:
atrophic cutaneous scar = assay: Topical treatment of an atrophic cutaneous scar in a human (case example); type: in vivo; conditions: aqueous solution 0.004% topical once daily
Protocol: FIG. 1 A. depicts a 6 month old atrophic cutaneous scar secondary to dermatologic surgery present on the abdomen of a person prior to treatment. During the 3 to 4 months prior to starting topical treatment with PGF 2α analog, the scar had not qualitatively changed in structure or appearance. […] The scar was then treated with an aqueous solution of topical travoprost 0.004% which was digitally massaged onto the scar surface once daily for several weeks. FIGS. 1B through J depict the appearance of the same scar at one week intervals during the treatment period.

synovial fibroblast = conditions: in culture; cited from earlier work
skin (Sc)fibroblasts = conditions: exogenous administration; mice with a mutated form of α2AP; cited from earlier work

Compound	Langer lines across the previously scarred skin (atrophic cutaneous scar; at 8 weeks)	surrounding skin: keloid formation, atrophy or pigmentation (atrophic cutaneous scar; at all time points)	other adverse reactions (atrophic cutaneous scar; during or after the treatment interval)	erythema of the scar (atrophic cutaneous scar; over 9 weeks of treatment)	transition of the border between the scar tissue and normal surrounding skin (atrophic cutaneous scar; over 9 weeks of treatment)	fibrosis and thickening of the atrophic areas of the scar (atrophic cutaneous scar; person, abdominal scar, over 9 weeks of treatment)	synovial fibroblast collagen production, cell proliferation and cell migration (synovial fibroblast)	bleomycin-induced collagen production / fibrosis in mutant (Sc)fibroblast strain (skin (Sc)fibroblasts)
CC(C)OC(=O)CCC/C=C\C[C@@H]1[C@@H](/C=C/[C@@H](O)COc2cccc(C(F)(F)F)c2)[C@H](O)C[C@@H]1O [travoprost]	normal appearing Langer lines are apparent	no evidence of keloid formation, atrophy or pigmentation	No other adverse reactions were noted	decrease in erythema	visibly smoother transition of the border between the scar tissue and normal surrounding skin	gradual increase in fibrosis and thickening of the atrophic areas of the scar		
Prostaglandin F 2α [PGF 2α]							stimulated	reversed the attenuation and this resulted in dermal thickening and fibrosis
transforming growth factor β							not	
